{"source": "patent US7482425B2", "about": "“Compositions for lipid matrix-assisted chemical ligation” (Amylin Pharmaceuticals, Inc., priority 2002, dated 2009)", "conditions": "pH 7.5", "note": "Where no end group is shown, it is not given here.", "data": [{"sequence": "TGRPEWIWLALGTALMGLGTLYFLVKGMGVSDPDAKK [Peptide 1, TGRPEWIWLALGTALMGLGTLYFLVKGMGVSDPDAKK]", "values": [{"measurement": "solubility", "result": "does not dissolve"}]}]}
